Measurements reported in the supplement of paper PMC10307832.

Legend:
Experiment in all cases: relative viability (nuclei count vs DMSO), 5 days (fraction); higher = more cells survive
Bexarotene + Luminespib = compound: C=C(c1ccc(C(=O)O)cc1)c1cc2c(cc1C)C(C)(C)CCC2(C)C [Bexarotene] + CCNC(=O)c1noc(-c2cc(C(C)C)c(O)cc2O)c1-c1ccc(CN2CCOCC2)cc1 [Luminespib] (partner 0.01 µM)
Summary of the method: (§1)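 The day after seeding in 1536-well plates, lung cancer cell lines were treated by pin tool with a single drug, or with a fixed anchor-drug dose together with five library-drug doses (not always all listed) in √10 steps. After 5 days, a combined fix-and-stain solution (final 0.05% Triton X-100, 1% formaldehyde, 1 ug/ml Hoechst) was added. Nuclei counted on 4× images gave relative viability as treated counts over vehicle counts, reported as the median of duplicate plates.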

Bexarotene + Pictilisib = compound: C=C(c1ccc(C(=O)O)cc1)c1cc2c(cc1C)C(C)(C)CCC2(C)C [Bexarotene] + CS(=O)(=O)N1CCN(Cc2cc3nc(-c4cccc5[nH]ncc45)nc(N4CCOCC4)c3s2)CC1 [Pictilisib] (partner 1 µM)
Summary of the method: as §1

Bexarotene + Palbociclib = compound: C=C(c1ccc(C(=O)O)cc1)c1cc2c(cc1C)C(C)(C)CCC2(C)C [Bexarotene] + CC(=O)c1c(C)c2cnc(Nc3ccc(N4CCNCC4)cn3)nc2n(C2CCCC2)c1=O [Palbociclib] (partner 0.5 µM)
Summary of the method: as §1

Bexarotene + OSI-027 = compound: C=C(c1ccc(C(=O)O)cc1)c1cc2c(cc1C)C(C)(C)CCC2(C)C [Bexarotene] + COc1cccc2cc(-c3nc([C@H]4CC[C@H](C(=O)O)CC4)n4ncnc(N)c34)[nH]c12 [OSI-027] (partner 0.5 µM)
Summary of the method: as §1

| Cell Line | relative viability (Bexarotene + Luminespib; first compound 0.08 µM) | relative viability (Bexarotene + Luminespib; first compound 0.253 µM) | relative viability (Bexarotene + Luminespib; first compound 0.8 µM) | relative viability (Bexarotene + Luminespib; first compound 2.53 µM) | relative viability (Bexarotene + Luminespib; first compound 8 µM) | relative viability (Bexarotene + Pictilisib; first compound 0.08 µM) | relative viability (Bexarotene + Pictilisib; first compound 0.253 µM) | relative viability (Bexarotene + Pictilisib; first compound 0.8 µM) | relative viability (Bexarotene + Pictilisib; first compound 2.53 µM) | relative viability (Bexarotene + Pictilisib; first compound 8 µM) | relative viability (Bexarotene + Palbociclib; first compound 0.08 µM) | relative viability (Bexarotene + Palbociclib; first compound 0.253 µM) | relative viability (Bexarotene + Palbociclib; first compound 0.8 µM) | relative viability (Bexarotene + Palbociclib; first compound 2.53 µM) | relative viability (Bexarotene + Palbociclib; first compound 8 µM) | relative viability (Bexarotene + OSI-027; first compound 0.08 µM) | relative viability (Bexarotene + OSI-027; first compound 0.253 µM) | relative viability (Bexarotene + OSI-027; first compound 0.8 µM) | relative viability (Bexarotene + OSI-027; first compound 2.53 µM) | relative viability (Bexarotene + OSI-027; first compound 8 µM) |
| --- | --- | --- | --- | --- | --- | --- | --- | --- | --- | --- | --- | --- | --- | --- | --- | --- | --- | --- | --- | --- |
| LCLC-97TM1 | 0.827 | 0.849 | 0.778 | 0.769 | 0.822 | 0.265 | 0.188 | 0.209 | 0.214 | 0.213 | 0.211 | 0.245 | 0.168 | 0.177 | 0.185 | 0.427 | 0.54 | 0.598 | 0.561 | 0.515 |
| HARA | 0.722 | 0.769 | 0.658 | 0.767 | 0.709 | 0.407 | 0.317 | 0.377 | 0.32 | 0.41 | 0.269 | 0.239 | 0.243 | 0.294 | 0.277 | 0.502 | 0.494 | 0.311 | 0.368 | 0.423 |
| HCC-78 |  |  |  |  |  | 0.228 | 0.196 | 0.215 | 0.182 | 0.194 | 0.518 | 0.416 | 0.403 | 0.473 | 0.509 | 0.389 | 0.325 | 0.331 | 0.34 | 0.399 |
| NCI-H1666 | 0.922 | 0.978 | 0.916 | 0.907 | 0.816 | 0.256 | 0.337 | 0.359 | 0.58 | 0.459 | 0.618 | 0.746 | 0.545 | 0.631 | 0.565 | 0.774 | 0.759 | 0.566 | 0.747 | 0.593 |
| NCI-H2347 | 0.507 | 0.255 |  | 0.379 | 0.22 | 0.597 | 0.62 | 0.461 | 0.743 | 0.605 | 0.465 | 0.413 | 0.343 | 0.368 | 0.426 | 0.353 | 0.275 |  | 0.446 | 0.386 |
| NCI-H838 | 0.368 | 0.377 | 0.269 | 0.329 | 0.321 | 0.557 | 0.5 | 0.51 | 0.638 | 0.578 | 0.23 | 0.209 | 0.176 | 0.216 | 0.245 | 0.443 | 0.391 | 0.465 | 0.47 | 0.554 |
| NCI-H2023 | 0.903 | 0.86 | 0.618 | 0.568 | 0.547 | 0.326 | 0.245 | 0.241 | 0.252 | 0.222 | 0.312 | 0.423 | 0.4 | 0.359 | 0.269 | 0.384 | 0.391 | 0.439 | 0.311 | 0.378 |
| 201T | 1 | 1.04 | 1.01 | 0.985 | 0.881 | 0.745 | 0.631 | 0.612 | 0.639 | 0.596 | 0.345 | 0.33 | 0.315 | 0.361 | 0.312 | 0.852 | 0.445 | 0.757 | 0.639 | 0.474 |
| NCI-H1915 | 0.805 | 0.742 | 0.748 | 0.714 | 0.724 | 1.19 | 0.989 | 0.882 | 0.996 | 0.917 | 0.555 | 0.5 | 0.442 | 0.533 | 0.423 | 0.67 | 0.661 | 0.568 | 0.594 | 0.601 |
| NCI-H2009 | 1.19 | 1.18 | 1.12 | 1.2 | 1.02 | 0.96 | 0.959 | 0.723 | 0.818 | 0.8 | 0.32 | 0.239 | 0.201 | 0.226 | 0.322 | 0.729 | 0.705 | 0.584 | 0.547 | 0.598 |
| BEN | 0.336 | 0.247 | 0.409 | 0.078 | 0.252 | 0.674 | 0.576 | 0.495 | 0.452 | 0.571 | 0.444 | 0.467 | 0.442 | 0.456 | 0.502 | 0.294 | 0.309 | 0.292 | 0.266 | 0.254 |
| PC-14 | 0.17 | 0.178 | 0.157 | 0.162 | 0.279 | 0.663 | 0.724 | 0.7 | 0.704 | 0.565 | 0.519 | 0.531 | 0.543 | 0.489 | 0.344 | 0.88 | 0.938 | 0.743 | 0.836 | 0.647 |
| SK-MES-1 | 0.923 | 0.989 | 0.803 | 0.742 | 0.64 | 0.397 | 0.408 | 0.466 | 0.329 | 0.399 | 0.347 | 0.352 | 0.314 | 0.313 | 0.267 | 0.638 | 0.708 | 0.563 | 0.603 | 0.525 |
| NCI-H727 | 0.392 | 0.685 | 0.325 | 0.322 | 0.372 | 0.463 | 0.36 | 0.348 | 0.346 | 0.355 | 0.683 | 0.578 | 0.595 | 0.696 | 0.711 | 0.63 | 0.657 | 0.478 | 0.465 | 0.612 |
| NCI-H1355 | 0.831 | 0.714 | 0.668 | 0.631 | 0.716 | 0.604 | 0.622 | 0.358 | 0.561 | 0.486 | 0.422 | 0.387 | 0.384 | 0.446 | 0.434 | 0.41 | 0.426 | 0.37 | 0.387 | 0.462 |
| NCI-H1975 | 0.171 | 0.159 | 0.201 | 0.154 | 0.215 | 0.361 | 0.347 | 0.319 | 0.342 | 0.386 | 0.667 | 0.578 | 0.575 | 0.616 | 0.547 | 0.9 | 0.811 | 0.802 | 0.806 | 0.722 |
| LK-2 | 0.206 | 0.222 | 0.281 |  | 0.18 | 0.933 | 0.711 | 0.824 | 0.659 | 0.785 | 0.656 | 0.825 | 0.702 | 0.695 | 0.669 | 0.262 | 0.207 | 0.237 | 0.202 | 0.255 |
